# Experimental data from patent US8541585B2, “N-acyl cyclic amine derivative or pharmaceutically acceptable salt thereof” (Dainippon Sumitomo Pharma Co., Ltd., priority 2010, dated 2013).
# Key:
# human 5-HT2A receptor = biological target: T1, human 5-HT2A receptor (Homo sapiens, UniProt P28223); test: Serotonin 5-HT2A receptor binding assay ([3H]-ketanserin); settings: 1 nM test drug, [3H]-ketanserin 1 nM, human 5-HT2A receptor-expressing CHO cell membrane; for inhibition at 0.001 µM: read-out: BINDING INHIBITION RATE (%) 5HT2A 1 nM
# T1 construct: expressed in transfected cells; host or cells: CHO cells (membrane preparation)
# T1 sequence (P28223 whole entry): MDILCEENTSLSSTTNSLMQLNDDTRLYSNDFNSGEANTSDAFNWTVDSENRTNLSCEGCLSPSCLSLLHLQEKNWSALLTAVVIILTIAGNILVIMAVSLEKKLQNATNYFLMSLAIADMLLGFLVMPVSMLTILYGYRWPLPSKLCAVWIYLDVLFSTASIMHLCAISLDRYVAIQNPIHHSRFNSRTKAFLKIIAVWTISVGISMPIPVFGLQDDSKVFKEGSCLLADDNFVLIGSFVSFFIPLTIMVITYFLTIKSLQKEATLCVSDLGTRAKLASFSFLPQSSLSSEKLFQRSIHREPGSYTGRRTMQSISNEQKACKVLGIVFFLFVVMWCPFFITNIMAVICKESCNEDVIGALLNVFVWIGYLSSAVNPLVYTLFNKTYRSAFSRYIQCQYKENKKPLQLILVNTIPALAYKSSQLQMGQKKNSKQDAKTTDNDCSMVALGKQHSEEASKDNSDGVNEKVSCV
# Method in brief: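 Membranes from CHO cells expressing human 5-HT2A incubated 15 min at 37 °C with 1 nM [3H]-ketanserin in 50 mM Tris-HCl pH 7.6, then filtered and counted by scintillation. Nonspecific binding defined with 10 μM MDL-100907; inhibition rate determined at 1 nM or 10 nM test drug.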
# human α1D receptor = biological target: T2, human α1D receptor (Homo sapiens, UniProt P25100); test: Adrenaline α1D receptor binding assay ([3H]-prazosin); settings: 100 nM test drug, [3H]-prazosin 0.6 nM, human α1D receptor-expressing CHO cell membrane; for inhibition at 0.1 µM: read-out: BINDING INHIBITION RATE (%) α1D 100 nM
# T2 construct: expressed in transfected cells; host or cells: CHO cells (membrane preparation)
# T2 sequence (P25100 1-572): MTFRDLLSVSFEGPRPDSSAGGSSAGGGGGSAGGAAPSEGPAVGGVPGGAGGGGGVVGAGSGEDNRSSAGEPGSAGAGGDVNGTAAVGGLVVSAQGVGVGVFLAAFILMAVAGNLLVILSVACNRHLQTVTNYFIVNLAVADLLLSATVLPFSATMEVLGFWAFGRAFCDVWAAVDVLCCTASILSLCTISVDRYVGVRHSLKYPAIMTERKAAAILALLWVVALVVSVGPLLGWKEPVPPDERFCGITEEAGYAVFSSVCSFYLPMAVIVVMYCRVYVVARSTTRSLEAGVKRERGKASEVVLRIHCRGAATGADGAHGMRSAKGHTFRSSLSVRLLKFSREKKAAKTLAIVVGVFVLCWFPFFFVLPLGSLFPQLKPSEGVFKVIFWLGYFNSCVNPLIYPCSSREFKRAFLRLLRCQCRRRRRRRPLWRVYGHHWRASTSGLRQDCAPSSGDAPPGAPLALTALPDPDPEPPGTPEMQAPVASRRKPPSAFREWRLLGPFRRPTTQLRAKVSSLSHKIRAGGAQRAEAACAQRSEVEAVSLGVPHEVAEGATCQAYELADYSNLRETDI
# Method in brief: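 Membranes from CHO cells expressing human α1D, incubated 30 min at room temperature with 0.6 nM [3H]-prazosin in 50 mM Tris-HCl pH 7.6, filtered and counted. Nonspecific binding defined with 1 μM prazosin. Test drug at 100 nM, reported as percent inhibition of binding.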
# human D2L receptor = human D2L receptor (Homo sapiens, UniProt P14416); test: Dopamine D2L receptor binding assay ([3H]-spiperone); settings: 10 nM test drug, [3H]-spiperone 0.5 nM, human D2L receptor-expressing CHO cell membrane; for inhibition at 0.01 µM: read-out: BINDING INHIBITION RATE (%) D2L 10 nM
# human D2L receptor, sequence (P14416 whole entry): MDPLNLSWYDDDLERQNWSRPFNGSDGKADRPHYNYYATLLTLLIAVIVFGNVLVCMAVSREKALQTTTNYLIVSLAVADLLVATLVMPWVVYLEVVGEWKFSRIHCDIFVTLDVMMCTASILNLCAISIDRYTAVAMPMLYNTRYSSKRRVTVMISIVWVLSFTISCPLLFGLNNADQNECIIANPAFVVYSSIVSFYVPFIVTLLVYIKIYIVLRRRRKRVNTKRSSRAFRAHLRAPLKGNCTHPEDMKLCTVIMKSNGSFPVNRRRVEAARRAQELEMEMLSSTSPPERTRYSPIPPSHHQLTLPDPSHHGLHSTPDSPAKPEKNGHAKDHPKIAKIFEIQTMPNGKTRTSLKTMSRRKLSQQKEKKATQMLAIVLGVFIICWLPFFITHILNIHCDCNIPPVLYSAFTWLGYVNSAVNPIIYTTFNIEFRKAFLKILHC
# Method in brief: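 CHO membranes expressing human D2L incubated 60 min at RT with 0.5 nM [³H]-spiperone in 50 mM Tris-HCl pH 7.6; filtration and scintillation counting. Nonspecific binding with 10 μM spiperone; % binding inhibition at 10 nM test drug.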
# human 5-HT6 receptor = biological target: T3, human 5-HT6 receptor (Homo sapiens, UniProt P50406); test: Serotonin 5-HT6 receptor binding assay ([3H]-clozapine); settings: 100 nM test drug, [3H]-clozapine 2 nM, human 5-HT6 receptor-expressing CHO cell membrane; for inhibition at 0.1 µM: read-out: BINDING INHIBITION RATE (%) 5HT6 100 nM
# T3 construct: expressed in transfected cells; host or cells: CHO cells (membrane preparation)
# T3 sequence (P50406 whole entry): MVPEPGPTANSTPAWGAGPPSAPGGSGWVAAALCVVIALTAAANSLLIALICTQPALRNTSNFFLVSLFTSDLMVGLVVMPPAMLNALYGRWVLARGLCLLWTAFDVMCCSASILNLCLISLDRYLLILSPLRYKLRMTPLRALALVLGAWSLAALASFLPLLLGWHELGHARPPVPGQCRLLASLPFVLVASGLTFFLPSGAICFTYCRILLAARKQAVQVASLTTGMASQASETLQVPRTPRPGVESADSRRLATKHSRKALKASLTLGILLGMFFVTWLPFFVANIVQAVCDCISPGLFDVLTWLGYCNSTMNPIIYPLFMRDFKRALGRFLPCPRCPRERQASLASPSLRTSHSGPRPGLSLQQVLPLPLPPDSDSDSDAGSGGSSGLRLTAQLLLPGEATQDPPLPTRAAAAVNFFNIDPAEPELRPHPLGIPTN
# Method in brief: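 Membranes from CHO cells expressing human 5-HT6 were incubated with [3H]-clozapine (2 nM final) for 40 min at room temperature in 50 mM Tris-HCl pH 7.6, 4 mM CaCl2, 0.5 mM EDTA. Bound radioactivity was filtered and counted. Values are % binding inhibition at 100 nM test drug, with nonspecific binding defined by 10 μM SB-258585.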
Molecule,inhibition at 0.001 µM (human 5-HT2A receptor) [%],inhibition at 0.1 µM (human α1D receptor) [%],inhibition at 0.01 µM (human D2L receptor) [%],inhibition at 0.1 µM (human 5-HT6 receptor) [%],BINDING INHIBITION RATE (%) 5HT2A 1 nM (human 5-HT2A receptor) [%],BINDING INHIBITION RATE (%) α1D 100 nM (human α1D receptor) [%],BINDING INHIBITION RATE (%) D2L 10 nM (human D2L receptor) [%],BINDING INHIBITION RATE (%) 5HT6 100 nM (human 5-HT6 receptor) [%]
Cc1cccc2cc(C(=O)N3CCC[C@H]3CCN3CCC(C(=O)c4ccc(F)cc4)CC3)[nH]c12 [Example 61],46,29,69,82,–,–,–,–
O=C(c1ccc(F)cc1)C1CCN(CC[C@@H]2CCCN2C(=O)c2cc3c(F)cccc3[nH]2)CC1 [Example 62],61,43,81,87,–,–,–,–
"O=C(c1ccc(F)cc1)C1CCN(CC[C@@H]2CCCN2C(=O)c2cc3ccc(F)cc3[nH]2)CC1 [Example 159, (S)-(6-Fluoro-1H-indol-2-yl)(2-(2-(4-(4-fluorobenzoyl)piperidin-1-yl)ethyl)pyrrolidin-1-yl)-methanone]",78,71,93,96,–,–,–,–
"O=C(c1ccc(F)cc1)C1CCN(CC[C@@H]2CCCN2C(=O)c2cc3ccc(OC(F)(F)F)cc3[nH]2)CC1 [Example 160, (S)-(2-(2-(4-(4-Fluorobenzoyl)piperidin-1-yl)ethyl)pyrrolidin-1-yl)(6-(trifluoromethoxy)-1H-indol-2-yl)methanone]",72,53,90,98,–,–,–,–
"CC(C)c1ccc2cc(C(=O)N3CCC[C@H]3CCN3CCC(C(=O)c4ccc(F)cc4)CC3)[nH]c2c1 [Example 161, (S)-(2-(2-(4-(4-Fluorobenzoyl)piperidin-1-yl)ethyl)pyrrolidin-1-yl)(6-isopropyl-1H-indol-2-yl)methanone]",69,66,49,97,–,–,–,–
"COc1c(F)ccc2[nH]c(C(=O)N3CCC[C@H]3CCN3CCC(C(=O)c4ccc(F)cc4)CC3)cc12 [Example 162, (S)-(5-Fluoro-4-methoxy-1H-indol-2-yl)(2-(2-(4-(4-fluorobenzoyl)piperidin-1-yl)ethyl)pyrrolidin-1-yl)methanone]",84,79,86,93,–,–,–,–
"O=C(c1ccc(F)cc1)C1CCN(CC[C@@H]2CCCN2C(=O)c2[nH]c3cc(F)ccc3c2F)CC1 [Example 163, (S)-(3,6-Difluoro-1H-indol-2-yl)(2-(2-(4-(4-fluorobenzoyl)piperidin-1-yl)ethyl)pyrrolidin-1-yl)methanone]",75,48,88,95,–,–,–,–
"O=C(c1ccc(F)cc1)C1CCN(CC[C@@H]2CCCN2C(=O)c2[nH]c3cc(OC(F)(F)F)ccc3c2F)CC1 [Example 164, (S)-(3-Fluoro-6-(trifluoromethoxy)-1H-indol-2-yl)(2-(2-(4-(4-fluorobenzoyl)piperidin-1-yl)ethyl)pyrrolidin-1-yl)methanone]",56,43,79,99,–,–,–,–
"O=C(c1ccc(F)cc1)C1CCN(CC[C@@H]2CCCN2C(=O)c2[nH]c3ccccc3c2F)CC1 [Example 165, (S)-(3-Fluoro-1H-indol-2-yl)(2-(2-(4-(4-fluorobenzoyl)piperidin-1-yl)ethyl)pyrrolidin-1-yl)methanone]",74,53,90,90,–,–,–,–
(S)-(2-(2-(4-(4-Fluorobenzoyl)piperidin-1-yl)ethyl)pyrrolidin-1-yl)(1-methyl-1H-indol-5-yl)methanone [Example 169],–,–,–,–,47,49,81,73
